Measurements published in the supplement of paper PMC10307832.

What was measured:
Experiment in all cases: relative viability (nuclei count vs DMSO), 5 days (fraction); higher = more cells survive
[1] = compound: Cc1ccc(NC(=O)c2ccc(CN3CCN(C)CC3)cc2)cc1Nc1nc(-c2cccnc2)cs1 [Masitinib] + Nc1nc2[nH]cc(CCc3ccc(C(=O)N[C@@H](CCC(=O)O)C(=O)O)cc3)c2c(=O)[nH]1 [Pemetrexed] (partner 0.2 µM)
How it was run: (§1)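 A single step with final 0.05% Triton X-100, 1% formaldehyde and 1 ug/ml Hoechst fixed the cells and stained nuclei 5 days after treatment. Lung cancer cell lines in 1536-well plates had been treated by pin tool the day after seeding with one drug alone or a fixed anchor-drug dose plus five library-drug doses (not always all listed) in √10 steps, and nuclei were counted on 4× images. Relative viability is the ratio of nuclei in treated wells to nuclei in vehicle wells, taken as the median of duplicate plates.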

[2] = compound: Cc1ccc(NC(=O)c2ccc(CN3CCN(C)CC3)cc2)cc1Nc1nc(-c2cccnc2)cs1 [Masitinib] + CC1(C)CCC(c2ccc(Cl)cc2)=C(CN2CCN(c3ccc(C(=O)NS(=O)(=O)c4ccc(N[C@H](CCN5CCOCC5)CSc5ccccc5)c(S(=O)(=O)C(F)(F)F)c4)cc3)CC2)C1 [Navitoclax] (partner 0.5 µM)
How it was run: as §1

[3] = compound: CC1=CC(=CC=C1)NC2=NC(=CS2)C3=CC=NC=C3 + Cc1cc(Nc2cc(N3CCN(C)CC3)nc(Sc3ccc(NC(=O)C4CC4)cc3)n2)n[nH]1 [Tozasertib] (partner 0.1 µM)
How it was run: as §1

[4] = compound: Cc1ccc(NC(=O)c2ccc(CN3CCN(C)CC3)cc2)cc1Nc1nc(-c2cccnc2)cs1 [Masitinib] + C[C@@H](Oc1cc(-c2cnn(C3CCNCC3)c2)cnc1N)c1c(Cl)ccc(F)c1Cl [Crizotinib] (partner 1 µM)
How it was run: as §1

Cell Line | relative viability ([1]; first compound 0.01 µM) | relative viability ([1]; first compound 0.03162 µM) | relative viability ([1]; first compound 0.1 µM) | relative viability ([1]; first compound 0.3162 µM) | relative viability ([1]; first compound 1 µM) | relative viability ([2]; first compound 0.01 µM) | relative viability ([2]; first compound 0.1 µM) | relative viability ([2]; first compound 0.3162 µM) | relative viability ([2]; first compound 1 µM) | relative viability ([3]; first compound 0.08 µM) | relative viability ([3]; first compound 0.253 µM) | relative viability ([3]; first compound 0.8 µM) | relative viability ([3]; first compound 2.53 µM) | relative viability ([3]; first compound 8 µM) | relative viability ([4]; first compound 0.01 µM) | relative viability ([4]; first compound 0.03162 µM) | relative viability ([4]; first compound 0.1 µM) | relative viability ([4]; first compound 0.3162 µM) | relative viability ([4]; first compound 1 µM) | relative viability ([2]; first compound 0.03162 µM)
RERF-LC-KJ | 0.475 | 0.522 | 0.44 | 0.535 | 0.459 | 0.986 | 1.07 | 0.873 | 0.541 | 0.447 | 0.476 | 0.438 | 0.382 | 0.259 | 0.853 | 0.901 | 0.79 | 0.755 | 0.759 | –
BEN | 0.886 | 0.713 | 0.897 | 0.704 | 0.777 | 0.066 | 0.066 | 0.0612 | 0.194 | 0.437 | 0.557 | 0.512 | 0.479 | 0.563 | 0.888 | 0.834 | 1.09 | 1.18 | 0.765 | 0.0657
LC-2-ad | 0.265 | 0.29 | 0.268 | 0.248 | 0.247 | 0.486 | 0.667 | 0.485 | 0.408 | 0.448 | – | 0.398 | 0.371 | 0.384 | 0.347 | 0.399 | 0.466 | 0.473 | 0.373 | 0.412
SW 1573 | 0.808 | 0.942 | 0.854 | 0.873 | 0.92 | 0.975 | 1.09 | 1.19 | 0.972 | 0.184 | 0.168 | 0.279 | 0.154 | 0.185 | 0.761 | 0.786 | 0.754 | 0.718 | 0.778 | 1.05
ChaGo-K-1 | 0.251 | 0.274 | 0.258 | 0.248 | 0.251 | 1.36 | 1.31 | 1.1 | 0.839 | 0.227 | 0.241 | 0.241 | 0.235 | 0.231 | 1.33 | 1.12 | 1.51 | 1.05 | 1.12 | 0.979
COR-L 105 | 1.04 | 1.09 | 1.1 | 0.989 | 0.997 | 0.747 | 0.781 | 0.926 | 0.774 | 0.348 | 0.296 | 0.282 | 0.381 | 0.372 | 0.657 | 0.803 | 0.876 | 0.686 | 0.717 | 0.688
NCI-H1993 | 0.622 | 0.58 | 0.582 | 0.483 | 0.502 | 0.921 | 0.944 | 0.651 | 0.885 | 0.543 | 0.605 | 0.562 | 0.617 | 0.519 | 0.942 | – | 0.883 | 0.755 | 0.718 | –
NCI-H2009 | 1 | 1.01 | 1.1 | 1.09 | 1.01 | 1.16 | 1.16 | 1.17 | 1.13 | 0.737 | 0.699 | 0.715 | 0.823 | 0.704 | 1.03 | 1.09 | 1 | 1.02 | 0.99 | 1.12
